Data taken from patent US20080064679A1, “Water Soluble Cannabinoids” (priority 2004, published 2008).
Where “and” joins values, the source holds several entries; their conditions need not be identical. Equal entries are not always repeated. Entries after “also recorded” stand apart in the source; their conditions may differ.

Legend:
human CB1 receptor [1] = target: T1, human CB1 receptor (Homo sapiens, UniProt P21554); test: CB1 receptor binding, [3H]CP55,940 displacement in membranes of transfected cells; settings: CB1 Ki
T1 construct: expressed in transfected cells; b94 says CHO for CB1
T1 sequence (P21554 whole entry): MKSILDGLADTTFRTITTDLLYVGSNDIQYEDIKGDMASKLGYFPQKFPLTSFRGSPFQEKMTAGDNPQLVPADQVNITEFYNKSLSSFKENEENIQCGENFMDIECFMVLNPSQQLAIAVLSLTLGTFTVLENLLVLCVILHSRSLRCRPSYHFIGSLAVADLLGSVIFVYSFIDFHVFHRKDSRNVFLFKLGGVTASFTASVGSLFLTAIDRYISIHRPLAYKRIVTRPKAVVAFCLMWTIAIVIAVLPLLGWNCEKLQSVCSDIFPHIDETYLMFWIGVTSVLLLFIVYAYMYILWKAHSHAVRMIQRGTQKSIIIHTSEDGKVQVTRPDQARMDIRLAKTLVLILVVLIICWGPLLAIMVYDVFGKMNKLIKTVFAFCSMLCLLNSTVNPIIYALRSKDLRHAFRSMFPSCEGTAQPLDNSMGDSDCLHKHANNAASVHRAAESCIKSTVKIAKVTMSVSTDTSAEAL
Procedure: (§1) For the in vivo studies, the drugs were dissolved in either saline or emulphor:ethanol:saline (E:E:S) as indicated.
(§2) cLogP calculations. Absolute solubility determinations were not performed. Rather, cLogP calculations were performed using the CS ChemDraw Ultra software (Cambridge Soft Corporation, Cambridge, Mass.). Receptor Binding. HEK-293 cells stably expressing the human CB1 receptor were cultured in DMEM with 10% FBS and Chinese Hamster Ovary (CHO) cells stably expressing the human CB2 receptor were cultured in DMEM with 10% FCS. Cells were harvested by replacement of the media with cold phosphate-buffered saline containing 1 mM EDTA followed by centrifugation at 1000×g for 5 min at 4° C. The pellet was resuspended in 50 mM Tris-HCl containing 320 mM sucrose, 2 mM EDTA and 5 mM MgCl2 (pH 7.4) (centrifugation buffer), then centrifuged at 1000×g for 10 min at 4° C., and the resulting supernatant was saved. This process was repeated twice. The supernatant fractions were combined and centrifuged at 40,000×g for 30 min at 4° C. The resulting P2 pellet was resuspended in assay buffer (50 mM Tris-HCl (pH 7.4), 3 mM MgCl2, 0.2 mM EGTA, and 100 mM NaCl) and protein was determined by the method of Bradford ENRfu(Bradford 1976). Membranes were stored at −80° C. until use. […] The assay was incubated at 30° C. for 1 hr and terminated by addition of ice cold 50 mM Tris-HCl plus BSA (1 mg/ml) (pH 7.4) followed by filtration under vacuum through Whatman GF/B glass fiber filters with 3 washes with cold Tris buffer. Bound radioactivity was determined by liquid scintillation spectrophotometry at 50% efficiency after extraction by shaking samples for 30-60 min with Budget-Solve scintillation fluid. Data are reported as the mean±SEM of three experiments, each performed in triplicate. Ki values were calculated from displacement data using EBDA (Equilibrium Binding Data Analysis; BIOSOFT, Milltown, N.J.). [^35S]GTPγS Binding Assays. Concentration-effect curves were generated by incubating membranes (10 μg prepared from CB1 expressing cells as described above) in assay buffer containing BSA (1 mg/ml) with various concentrations of test compounds in the presence of 20 μM GDP and 0.1 nM [^35S]GTPγS in a 1 ml total volume. […] Basal binding was assessed in the absence of agonist, and nonspecific binding was measured in the presence of 10 μM GTPγS. The reaction was incubated for 90 min at 30° C. and terminated by filtration under vacuum through Whatman GF/B glass fiber filters with 3 washes with cold (4° C.) Tris buffer (50 mM Tris-HCl, pH 7.4). Bound radioactivity was determined by liquid scintillation spectrophotometry at 95% efficiency after extraction overnight in ScintiSafe Econo 1 scintillation fluid. Data are reported as mean±SEM of three experiments, each performed in triplicate. Nonlinear regression analysis was conducted by iterative fitting using JMP (SAS for Macintosh). Net-stimulated [^35S]GTPγS binding is defined as [^35S]GTPγS binding in the presence of drug minus basal and percent stimulation is expressed as (net stimulated [^35S]GTPγS binding/basal)×100%. Behavioral Evaluations. All animals were allowed to acclimate to the observation room overnight. Behavioral effects were assessed in the tetrad model in order to measure potency in producing antinociception, catalepsy, hypothermia, and hypomobility. The baselines for tail-flick latency (2-4 seconds) and rectal temperature were determined prior to i.v. injections. Baseline rectal temperatures were measured using a telethermometer and a thermometer probe inserted to 25 mm (Yellow Springs Instrument Co., Yellow Springs, Ohio). The mice were then given either an i.v. i.c.v. injection of the analog. The mice were placed in individual photocell activity chambers 5 min later. Spontaneous activity was monitored for 10 min in a Digiscan Animal Activity Monitor (Omnitech Electronice, Inc., Columbus, Ohio) as measured by the number of interruptions of 16 photocell beams per chamber.

human CB1 receptor [2] = target: T1, human CB1 receptor; test: [35S]GTPγS binding assay in membranes of CB1 expressing cells; type: biochemical; settings: for EC50: CB1 EC50, [35S]GTPγS binding, mean±SEM; for Emax: maximal GTPγS binding as percentage of stimulation produced by CP 55,940, read-out: CB1 % CP Stim
Procedure: as §1, §2

mice [3] = test: Tail-flick antinociception (T.F.), mouse tetrad; type: in vivo; settings: for ED50: Mus musculus, iv, mice, i.v.; for Analgesia in the tail-flick procedure: oral 10 mg/kg
mice [4] = test: Rectal temperature (R.T.), mouse tetrad; type: in vivo; settings: Mus musculus, iv
mice [5] = test: Relative immobility (R.I.), ring-immobility test, mouse tetrad; type: in vivo; settings: Mus musculus, iv
mice [6] = test: Tetrad model, all four behavioral measures together (time course, oral and i.c.v. administration); type: in vivo, mouse; settings: for Potency following oral administration (four tests) / Time course of effects following oral administration: 10 mg/kg; for Potency following oral administration (four tests): 30 minutes before the start of testing; for Time course of effects following oral administration: different time points before testing
[7] = Stability in buffer, plasma and microsomal enzymes
[8] = Procedure: By “water-soluble” we mean that 1 mg of material in 1 ml of water gives a clear solution and is water miscible.
as §1

[9] = vehicle E:E:S (1:1:18), read-out: T.F. ED50 (antinociception in the tail-flick procedure)
[10] = vehicle saline, read-out: T.F. ED50 (antinociception in the tail-flick procedure)
[11] = vehicle E:E:S (1:1:18), read-out: R.T. ED50 (lowering rectal temperature)
[12] = vehicle saline, read-out: R.T. ED50 (lowering rectal temperature)
[13] = vehicle E:E:S (1:1:18), read-out: R.I. ED50 (relative immobility)
[14] = vehicle saline, read-out: R.I. ED50 (relative immobility)

| Compound | Ki (human CB1 receptor [1]) | EC50 (human CB1 receptor [2]) | ED50 (mice [3]; [9]) | ED50 (mice [3]; [10]) | ED50 (mice [4]; [11]) | ED50 (mice [4]; [12]) | ED50 (mice [5]; [13]) | ED50 (mice [5]; [14]) | Potency following oral administration (four tests) (mice [6]) | Time course of effects following oral administration (mice [6]) | Emax (human CB1 receptor [2]) | Solubility (water-soluble) [8] | other results |
| --- | --- | --- | --- | --- | --- | --- | --- | --- | --- | --- | --- | --- | --- |
| CC1=CC[C@@H]2[C@@H](C1)c1c(O)cc(C(C)(C)CCCCn3ccnc3)cc1OC2(C)C [O-2545, Imidazol-1-yl] | 1.34 nM and 1.47 nM | 29.3 nM and 4.57 nM | 0.07 µmol/kg | 0.16 µmol/kg | 0.04 µmol/kg | 0.29 µmol/kg | 0.13 µmol/kg | 0.14 µmol/kg | fully effective in producing antinociception, hypothermia and ring immobility but was only a partial agonist in producing sedation | By four hrs the effects had largely dissipated; also recorded: produce the full range of effects up to 2 hours | – | – | ED50 (mice [3]; figure legends, saline, read-out: ED50 after i.v. administration, tail-flick response): 0.16 µmol/kg; Analgesia in the tail-flick procedure (mice [3]; at two hrs, mean±sem): 85±11%; ED50 (mice [4]; figure legends, i.v., saline, read-out: ED50 after i.v. administration, rectal temperature): 0.29 µmol/kg; ED50 (mice [5]; figure legends, i.v., saline, read-out: ED50 after i.v. administration, relative immobility): 0.14 µmol/kg; Time course of effects after i.v. administration (mice [6]; FIG. 10, 0.24 μmoles/kg i.v., saline): At 1 hr all effects, except ring immobility, are present but only antinociception is present at 2 hours; Activity in the behavioral tests after i.c.v. injection (mice [6]; i.c.v., analogs dissolved in water, THC in emulphor:ethanol:saline, Table 5 not given): the most potent; In vivo potency relative to Δ^9-THC (times more potent) (mice [6]; mice, i.v., 1:1:18 vehicle): at least 40 fold; Stability in buffer, plasma and microsomal enzymes [7]: excellent stability in buffer and plasma and microsomal enzymes |
| CC1=CC[C@@H]2[C@@H](C1)c1c(O)cc(C(C)(C)CCCCn3cccn3)cc1OC2(C)C [O-2715, Pyrazol-1-yl] | 1.94 ± 0.29 nM | 4.03 ± 0.28 nM | 0.06 µmol/kg | – | 0.14 µmol/kg | – | 0.07 µmol/kg | – | active in all tests | negligible effects at one hr; also recorded: effects that lasted only 1 hour | 93 ± 1.75% | No | ED50 (mice [3]; figure legends, vehicle 1:1:18 ethanol:emulphor:saline, read-out: ED50 after i.v. administration, tail-flick): 0.06 µmol/kg; Analgesia in the tail-flick procedure (mice [3]; at one hr): 21±6%; ED50 (mice [4]; figure legends, i.v., vehicle 1:1:18 ethanol:emulphor:saline, read-out: ED50 after i.v. administration, rectal temperature): 0.14 µmol/kg; ED50 (mice [5]; figure legends, i.v., vehicle 1:1:18 ethanol:emulphor:saline, read-out: ED50 after i.v. administration, relative immobility): 0.07 µmol/kg; Time course of effects after i.v. administration (mice [6]; FIG. 12, 0.3 mg/kg (0.74 μmoles/kg) i.v., vehicle 1:1:18): duration of antinociception and hypothermia exceeded that of sedation and relative immobility |
| CC1=CC[C@@H]2[C@@H](C1)c1c(O)cc(C(C)(C)CCCCn3ccnc3C)cc1OC2(C)C [O-2651, 2-Methyl-imidazol-1-y1] | 13.9 ± 0.83 nM | 82.9 ± 45.7 nM | – | 1.75 µmol/kg | – | 3.58 µmol/kg | – | 4.29 µmol/kg | – | – | 33.4 ± 3.41% | Yes | In vivo potency, fold less potent than the hydrochloride salt of O-2545 (mice [6]; mice, administered in saline): at least 10 fold |
| CNC(=O)CCCCC(C)(C)c1cc(O)c2c(c1)OC(C)(C)[C@@H]1CC=C(C)C[C@@H]21 [O-2490, N-(Methyl)carboxamido] | 18.7 ± 0.58 nM | 64.2 ± 10.6 nM | 1.37 µmol/kg | – | > 2.5 µmol/kg | – | > 2.5 µmol/kg | – | – | – | 92.7 ± 7.81% | No | Maximal effects in hypothermia and catalepsy assays (mice [6]; dose 1 mg/kg that produced maximal effects in the other two measures): failed to produce maximal effects in hypothermia and catalepsy assays |
